Reference: publication PMC9025901, “New Genetic Bomb Trigger: Design, Synthesis, Molecular Dynamics Simulation, and Biological Evaluation of Novel BIBR1532-Related Analogs Targeting Telomerase against Non-Small Cell Lung Cancer” (Pharmaceuticals, 2022)

Key:
Assay in all cases: NCI-60 in vitro anticancer screening (SRB)
MDA-MB-435 = settings: MDA-MB-435, Melanoma; 10 µM, 48 h
Experimental: (§1) The cancer screening panel’s human tumor 60 cell lines were cultured in the RPMI 1640 medium with (5%) fetal bovine serum and (2 mM) L-glutamine. For a screening experiment, cells were injected onto 96-well microtiter plates (100 µL), with plating densities varying from 5 to 40 × 10^3 cells per well, depending on different cell lines’ doubling times. Before introducing experimental drugs, the microtiter plates were incubated overnight at 37 °C, 95% air, 5% CO2, and 100% relative humidity after cell injection. TCA was employed to keep each cell line in place overnight, resembling a computation of the cell population for every cell line at the time of the addition of the drug. The experimental drugs were chilled after solubilization in DMSO at 400 times the final maximum test concentration. At the moment of the addition of the drug, the aliquot of the frozen concentrate was thawed and diluted to twice the required final maximum concentration with the complete medium containing (50 µg/mL) gentamicin. The required final concentration of the drug (10 µM) was reached by adding 100 µL aliquots of these definite dilutions of the drug to suitable microtiter wells previously holding a medium of 100 µL. […] The bound dye was then solubilized with a (10 mM) trizma base, and absorbance was calculated at 515 nm on an automatic reader. […]

CAKI-1 = settings: CAKI-1, Renal cancer; 10 µM, 48 h
Experimental: as §1

BT-549 = settings: BT-549, Breast cancer; 10 µM, 48 h
Experimental: as §1

SK-MEL-28 = settings: SK-MEL-28, Melanoma; 10 µM, 48 h
Experimental: as §1

SR = settings: Leukemia, 10 µM, 48 h
Experimental: (§2) The cancer screening panel’s human tumor 60 cell lines were cultured in the RPMI 1640 medium with (5%) fetal bovine serum and (2 mM) L-glutamine. For a screening experiment, cells were injected onto 96-well microtiter plates (100 µL), with plating densities varying from 5 to 40 × 10^3 cells per well, depending on different cell lines’ doubling times. Before introducing experimental drugs, the microtiter plates were incubated overnight at 37 °C, 95% air, 5% CO2, and 100% relative humidity after cell injection. TCA was employed to keep each cell line in place overnight, resembling a computation of the cell population for every cell line at the time of the addition of the drug. The experimental drugs were chilled after solubilization in DMSO at 400 times the final maximum test concentration. At the moment of the addition of the drug, the aliquot of the frozen concentrate was thawed and diluted to twice the required final maximum concentration with the complete medium containing (50 µg/mL) gentamicin. […] The bound dye was then solubilized with a (10 mM) trizma base, and absorbance was calculated at 515 nm on an automatic reader. […] The % growth of treated cells was established using seven absorbance measurements and compared to untreated control cells [57].

SNB-19 = settings: SNB-19, CNS cancer; 10 µM, 48 h
Experimental: as §2

SNB-75 = settings: SNB-75, CNS cancer; 10 µM, 48 h
Experimental: as §2

HCC-2998 = settings: HCC-2998, Colon cancer; 10 µM, 48 h
Experimental: as §2

IGROV1 = settings: IGROV1, Ovarian cancer; 10 µM, 48 h
Experimental: as §2

SW-620 = settings: SW-620, Colon cancer; 10 µM, 48 h
Experimental: as §2

LOX IMVI = settings: Melanoma, 10 µM, 48 h
Experimental: as §2

MDA-MB-231/ATCC = settings: Breast cancer, 10 µM, 48 h
Experimental: as §1

TK-10 = settings: TK-10, Renal cancer; 10 µM, 48 h
Experimental: as §2

NCI-H522 = settings: NCI-H522, Lung cancer (NSCLC); 10 µM, 48 h
Experimental: as §2

CCRF-CEM = settings: Leukemia, 10 µM, 48 h
Experimental: as §1

HCT-116 = settings: HCT-116, Colon cancer; 10 µM, 48 h
Experimental: as §2

MDA-MB-468 = settings: MDA-MB-468, Breast cancer; 10 µM, 48 h
Experimental: as §2

NCI-H23 = settings: NCI-H23, Lung cancer (NSCLC); 10 µM, 48 h
Experimental: as §2

RXF 393 = settings: RXF 393, Renal cancer; 10 µM, 48 h
Experimental: as §1

UACC-257 = settings: UACC-257, Melanoma; 10 µM, 48 h
Experimental: as §2

RPMI-8226 = settings: RPMI-8226, Leukemia; 10 µM, 48 h
Experimental: as §2

HS 578T = settings: Breast cancer, 10 µM, 48 h
Experimental: as §1

HOP-92 = settings: HOP-92, Lung cancer (NSCLC); 10 µM, 48 h
Experimental: as §2

HT29 = settings: HT29, Colon cancer; 10 µM, 48 h
Experimental: as §2

786-0 = settings: 786-0, Renal cancer; 10 µM, 48 h
Experimental: as §2

OVCAR-4 = settings: OVCAR-4, Ovarian cancer; 10 µM, 48 h
Experimental: as §2

NCI-H322M = settings: Lung cancer (NSCLC), 10 µM, 48 h
Experimental: as §2

SF-268 = settings: SF-268, CNS cancer; 10 µM, 48 h
Experimental: as §2

PC-3 = settings: PC-3, Prostate cancer; 10 µM, 48 h
Experimental: as §2

`N#C/C(=C\c1ccc2ccccc2c1)C(=O)Nc1sc2c(c1C#N)CCCC2` [Compound 36b, (2E)-2-Cyano-N-(3-cyano-4,5,6,7-tetrahydro-1-benzothiophen-2-yl)-3-(naphthalen-2-yl)prop-2-enamide] was tested. Which “Growth Percent” value (MDA-MB-435) did it give?
The value was 101.92%.

What about the “Growth Percent” value (CAKI-1) of the same compound?
Its value is 94.28%.

What about the “Growth Percent” value (BT-549) of the same compound?
The value was 107.71%.

And the “Growth Percent” value (SK-MEL-28)?
Its value is 102.31%.

What about the “Growth Percent” value (SR) of the same compound?
The value was 95.72%.

And the “Growth Percent” value (SNB-19)?
Its value is 100.30%.

What about the “Growth Percent” value (SNB-75) of the same compound?
The value was 101.09%.

What about the “Growth Percent” value (HCC-2998) of the same compound?
Its value is 114.98%.

And the “Growth Percent” value (IGROV1)?
Its value is 103.06%.

And the “Growth Percent” value (SW-620)?
The value was 103.69%.

What about the “Growth Percent” value (LOX IMVI) of the same compound?
Its value is 102.88%.

And the “Growth Percent” value (MDA-MB-231/ATCC)?
Its value is 92.15%.

What about the “Growth Percent” value (TK-10) of the same compound?
The value was 113.35%.

And the “Growth Percent” value (NCI-H522)?
The value was 94.31%.

What about the “Growth Percent” value (CCRF-CEM) of the same compound?
The value was 104.69%.

What about the “Growth Percent” value (HCT-116) of the same compound?
The value was 100.18%.

And the “Growth Percent” value (MDA-MB-468)?
The value was 90.36%.

And the “Growth Percent” value (NCI-H23)?
The value was 94.56%.

What about the “Growth Percent” value (RXF 393) of the same compound?
Its value is 111.16%.

And the “Growth Percent” value (UACC-257)?
The value was 102.32%.

What about the “Growth Percent” value (RPMI-8226) of the same compound?
The value was 99.85%.

And the “Growth Percent” value (HS 578T)?
Its value is 103.54%.

And the “Growth Percent” value (HOP-92)?
The value was 90.75%.

And the “Growth Percent” value (HT29)?
Its value is 112.60%.

What about the “Growth Percent” value (786-0) of the same compound?
Its value is 101.2%.

And the “Growth Percent” value (OVCAR-4)?
The value was 100.16%.

And the “Growth Percent” value (NCI-H322M)?
Its value is 98.58%.

What about the “Growth Percent” value (SF-268) of the same compound?
Its value is 104.45%.

What about the “Growth Percent” value (PC-3) of the same compound?
The value was 104.77%.
